Patent US6696404B1, “Antibacterial composition having xanthorrizol” (LG Household & Healthcare, priority 1999, dated 2004)
Values after ≈ are worked out from the molar mass of the structure shown.

Assays:
Streptococcus mutans [1] = assay: Thermal stability: well diffusion analysis after heating; assay type: cell-based; conditions: 0.1% in DMSO heated 30 minutes
Method: Xanthorrizol was dissolved in DMSO to prepare specimens with a concentration of 0.1%. The specimens were heated for 30 minutes at the temperature of 60° C., 70° C., 80° C., 90° C., 100° C. and 121° C., respectively. Then, antibacterial activity against Streptococcus mutans was determined for each specimen by well diffusion analysis, whose results are shown in Table 13.

[2] = system: Streptococcus salivarius ATCC 9758; assay: MIC by 2-fold dilution; assay type: cell-based; conditions: ATCC9758, 2×10^5 CFU/ml, 30 to 37° C., more than 24 hours
Method: (§1) In addition, minimum inhibitory concentration(MIC, μg/ml) for various microorganisms was determined by performing 2-fold dilution: first, 1 ml of medium was taken into each tube, and 1 ml of xanthorrizol(0.05% in DMSO) was added to only one tube to make 2-fold dilution. Then, serial 2-fold dilution was further carried out for the rest of the tubes, starting from the tube containing xanthorrizol. 100 μl of microorganism was added into each tube prepared by the 2-fold dilution to contain a final cell number of 2×10^5 CFU/ml, and incubated at 30 to 37° C. for more than 24 hours to determine minimum inhibitory concentrations for various test microorganisms(see: Table 12).

[3] = system: Streptococcus mutans ATCC 25175; assay: MIC by 2-fold dilution; assay type: cell-based; conditions: ATCC25175, 2×10^5 CFU/ml, 30 to 37° C., more than 24 hours
Method: as §1

Streptococcus mutans [4] = assay: Efflux of intracellular macromolecules and ions after xanthorrizol treatment; assay type: cell-based; conditions: 5 and 10 μg/ml xanthorrizol; FIGS. 4a, 4b, 5a, 5b
Method: Streptococcus mutans was treated with 5 and 10 μg/ml of xanthorrizol for 1, 2, 5 and 10 minutes, respectively, to examine the efflux of intracellular macromolecules and ions by the xanthorrizol-mediated cell damage. FIGS. 4a and 4b are graphs showing the efflux of neucleic acid and protein from Streptococcus mutans after xanthorrizol treatment, and FIGS. 5a and 5b, calcium efflux and magnesium efflux, where ♦ represents 0.1% DMSO, control; ▪, Streptococcus mutans treated with 5 μg/ml xanthorrizol; •, Streptococcus mutans treated with 10 μg/ml xanthorrizol, respectively.

human skin = assay: Skin safety patch test; assay type: in vivo

CC(C)=CCC[C@@H](C)c1ccc(C)c(O)c1 [xanthorrizol, 1,3,5,10-bisabolatetraen-3-ol]
Diameter of Clear Zone (Streptococcus mutans [1]; Treatment Temp. 60 ° C.): 17 mm | Diameter of Clear Zone (Streptococcus mutans [1]; Treatment Temp. 70 ° C.): 16 mm | Diameter of Clear Zone (Streptococcus mutans [1]; Treatment Temp. 80 ° C.): 17 mm | Diameter of Clear Zone (Streptococcus mutans [1]; Treatment Temp. 90 ° C.): 17 mm | Diameter of Clear Zone (Streptococcus mutans [1]; Treatment Temp. 100 ° C.): 18 mm | Diameter of Clear Zone (Streptococcus mutans [1]; Treatment Temp. 121 ° C.): 17 mm | MIC [2]: 4 µg/mL (≈ 18.3 µM) | MIC [3]: 2 µg/mL (≈ 9.16 µM) | efflux of protein, neucleic acid and ion (Streptococcus mutans [4]): increased dramatically in 5 minutes | adverse effects such as erythema, scarring or edema on skin (human skin): do not cause adverse effects
